Counter-ions that a name gives are not always drawn.
Target: T1, DβH (Homo sapiens, UniProt P09172)
T1 construct: 125 μL of plasma (or saline for blank reaction or standard curve); tissue Instituto Português do Sangue Transplantação, Centro Sangue Transplantação, Porto, Portugal; host or cells: human plasma from healthy donors
T1 sequence (P09172 40-617 limits assumed): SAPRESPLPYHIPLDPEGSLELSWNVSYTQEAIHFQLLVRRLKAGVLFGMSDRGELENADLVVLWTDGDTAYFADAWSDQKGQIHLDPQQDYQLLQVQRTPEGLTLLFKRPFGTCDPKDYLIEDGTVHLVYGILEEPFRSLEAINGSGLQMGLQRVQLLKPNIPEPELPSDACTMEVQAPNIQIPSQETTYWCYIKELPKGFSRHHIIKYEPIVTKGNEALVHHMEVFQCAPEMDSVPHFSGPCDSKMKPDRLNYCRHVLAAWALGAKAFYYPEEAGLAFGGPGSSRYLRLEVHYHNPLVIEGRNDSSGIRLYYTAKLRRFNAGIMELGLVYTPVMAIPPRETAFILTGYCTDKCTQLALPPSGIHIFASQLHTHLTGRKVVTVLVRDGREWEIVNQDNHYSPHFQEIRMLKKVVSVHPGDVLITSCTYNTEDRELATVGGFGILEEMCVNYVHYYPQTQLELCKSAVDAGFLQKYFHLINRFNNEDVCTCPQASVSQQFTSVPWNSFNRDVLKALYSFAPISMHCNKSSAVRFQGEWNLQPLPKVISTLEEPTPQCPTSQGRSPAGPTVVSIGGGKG
Experiment: Dopamine-β-hydroxylase inhibition assay in human plasma
Type: biochemical
Details: for DβH (0.01 μM) / remaining activity at 0.01 µM: DβH activity in human plasma at 0.01 μM inhibitor; for IC50: human plasma, curve fitting of 6 concentrations (100 nM to 0.3 nM)
Experimental: The ability of a compound to inhibit DβH activity may be assessed in human plasma using the following assay.
Dopamine beta hydroxylase activity in human plasma was measured by the method of Nagatsu and Udenfriend (Nagatsu, T. and Udenfriend, S. “Photometric assay of dopamine-p-hydroxylase activity in human blood.” Clin. Chem. 18(9) 980-983, 1972) with minor modifications. Catalase, N-ethylmaleimide, tyramine, disodium fumarate, pargyline, sodium acetate, ascorbic acid, copper sulfate and octopamine were obtained from Sigma Chemical Co., St. Louis, Mo. 63178. Human plasma samples were obtained from healthy donors (Instituto Português do Sangue Transplantação, Centro Sangue Transplantação, Porto, Portugal). From date of collection, plasma was stored at −80° C. until use. Test compounds were initially prepared in dimethyl sulfoxide at a concentration of 10 mM and diluted in dimethyl sulfoxide to the required concentrations. Test compounds were further diluted in ultrapure water to a concentration 20-fold to that of the final concentration to be tested. Final concentrations of test compounds were 10 and 100 nM. The various reagents used to make up the incubation buffer were premixed and consisted of the following components: sodium acetate buffer (1 M, pH 5.0, 18 mL), sodium fumarate (0.2 M, 4.5 mL), ascorbic acid (0.2 M, 4.5 ml, freshly prepared), pargyline (20 mM, freshly prepared, 4.5 mL), N-ethylmaleimide (0.2 M, 4.5 mL), catalase (10 000 U/mL, 9 mL), copper sulfate (20 μM, 4.5 mL) and 4.5 ultrapure water. The standard incubation mixture (total volume, 950 μL) contained: 50 μL of compound or vehicle (dimethyl sulfoxide 2%); 700 μL of incubation buffer; 125 μL of plasma (or saline for blank reaction or standard curve); 75 μL of saline. The reaction mixture was placed in water bath, shaking at 37° C. and pre-incubated for 10 minutes. Tyramine (0.5 M) was added and incubation proceeded for 45 minutes. The reaction contents were exposed to air. A sample of enzyme preparation (with 125 μL of plasma) that had been added perchloric acid 2 M at the end of the pre-incubation period was used as blank. A blank for each of the tested compounds was used. For octopamine standard curve, perchloric acid 2 M was replaced by increasing concentrations of octopamine prepared in perchloric acid 2 M (0.5, 1, 2.5, 5, 7.5, 10, 15, 20 μg/mL, final concentration). The incubation was stopped by adding 200 μL of 2 M molar perchloric acid, and the mixture was centrifuged at 9000 g for 5 min. The supernatant fluid (800 μL) was transferred to a column (SPE cartridge ISOLUTE SCX-3, 100 mg) and centrifuged at 150 g for 2 min. The column was washed two more times with 0.5 ml of ultrapure water by centrifuging at 150 g for 2 min. The adsorbed octopamine was eluted twice with 0.3 mL of 4 M ammonium hydroxide by centrifuging at 150 g for 2 min. Octopamine in the eluate was then converted to p-hydroxybenzaldehyde by adding 200 μL of sodium periodate (2%) and incubating for 6 min. Excess periodate was than reduced by adding 200 μL of sodium metabisulfite (10%). Absorbance was measured at […] in a 96-well plate by use of a SpectraMAX plus 384 (Molecular Devices) with software SOFTmax® PRO Software 5.3 spectrophotometer. Absorbance was linear with octopamine concentration from 0.5 to 20 μg/mL. Dopamine beta hydroxylase activity is determined as nmol of octopamine formed/mL of plasma/hour and effect of compounds is presented as % control. Results are reported in the table below as activity in % of control at the inhibitor concentration tested.
IC50 values of selected compounds were calculated based on curve fitting of results of 6 different compound concentrations (100 nM to 0.3 nM). IC50 data are reported in nM concentration.

[1] = DβH activity in human plasma at 0.1 μM inhibitor

SMILES	DβH (0.01 μM)	remaining activity at 0.1 µM [1] [%]	remaining activity at 0.01 µM [%]	DβH (0.1 μM) [1]	IC50 [nM]
CN(C)CCCc1[nH]c(=S)n2c1C[C@H](c1c(F)ccc(F)c1F)C2 [Example 8, (R)-1-(3-(dimethylamino)propyl)-6-(2,3,6-trifluorophenyl)-2,5,6,7-tetrahydro-3H-pyrrolo[1,2-c]imidazole-3-thione]	113.4 % of Control	52.8			
NCCCc1[nH]c(=S)n2c1C[C@H](c1c(F)ccc(F)c1F)C2 [Example 2, (R)-1-(3-aminopropyl)-6-(2,3,6-trifluorophenyl)-2,5,6,7-tetrahydro-3H-pyrrolo[1,2-c]imidazole-3-thione]		66.6	98.4		
Cl.Fc1ccc(F)c([C@H]2Cc3c(CCCN4CCOCC4)[nH]c(=S)n3C2)c1F [Example 1, (R)-1-(3-morpholinopropyl)-6-(2,3,6-trifluorophenyl)-2,5,6,7-tetrahydro-3H-pyrrolo[1,2-c]imidazole-3-thione hydrochloride]	64.6 % of Control			12.9 % of Control	12.7
Fc1ccc(F)c([C@H]2Cc3c(CCCN[C@H]4CCCOC4)[nH]c(=S)n3C2)c1F [Example 9, (R)-1-(3-(((S)-tetrahydro-2H-pyran-3-yl)amino)propyl)-6-(2,3,6-trifluorophenyl)-2,5,6,7-tetrahydro-3H-pyrrolo[1,2-c]imidazole-3-thione]		12.2	48.1		19.1
CN(CCCc1[nH]c(=S)n2c1C[C@H](c1c(F)ccc(F)c1F)C2)C1CCOC1 (stereo partly drawn) [Example 13, (6R)-1-(3-(methyl(tetrahydrofuran-3-yl)amino)propyl)-6-(2,3,6-trifluorophenyl)-2,5,6,7-tetrahydro-3H-pyrrolo[1,2-c]imidazole-3-thione hydrochloride]		29.3	69.9		22.2
CN(CCCc1[nH]c(=S)n2c1C[C@H](c1c(F)ccc(F)c1F)C2)C1CCOCC1 [Example 12, (R)-1-(3-(methyl(tetrahydro-2H-pyran-4-yl)amino)propyl)-6-(2,3,6-trifluorophenyl)-2,5,6,7-tetrahydro-3H-pyrrolo[1,2-c]imidazole-3-thione]		18.9	71.2		20.9
